According to PMC8868508, “Kassporin-KS1: A Novel Pentadecapeptide from the Skin Secretion of Kassina senegalensis: Studies on the Structure-Activity Relationships of Site-Specific “Glycine-Lysine” Motif Insertions” (Antibiotics, 2022):
Converted amounts (≈) assume the structure as drawn. Where two headings read alike, the source gives them in different places. Where a SMILES comes first, the peptide text is derived from it.

Columns and labels:
[1] = system: E. coli NCTC 10418 biofilm; type: cell-based, Escherichia coli; conditions: NCTC 10418, 24 h
Method: (§1) As previously described, the MBIC and MBEC of the peptides against bacteria were determined. Staphylococcus aureus (S. aureus, NCTC 10788) and Escherichia coli (E. coli, NCTC 10418) was selected as representative strains. For the MBIC assay, the cultures were sub-cultured to their logarithmic growth phases. The diluted bacterial suspension was incubated with the peptide solution overnight in a 96-well plate. The resulting biofilm was washed with PBS solution, fixed with methanol, and dried. The biofilm was then stained with 0.1% (w/v) crystal violet, washed again with PBS, and dissolved in 30% acetic acid. The absorbance of the solution in each well at 595 nm was counted by the Synergy HT Microplate Spectrophotometer (Biotech, Minneapolis, MN, USA). Compared with the negative control, the lowest concentration that inhibits biofilm formation was MBIC. For the determination of MBEC, the diluted bacterial solution was incubated in the 96-well plate for 24 h, with 100 µL per well. Then, the biofilm was washed and re-incubated with 100 µL peptide-medium solution. After 24 h, the biofilm was again washed, stained, and dissolved as in the MBIC assay. Each well was detected at 595 nm by the same plate reader in MBIC. Compared with the negative control, the lowest concentration to eliminate biofilm was MBEC.

[2] = system: S. aureus infected Galleria mellonella larvae; conditions: in vivo
Method: Galleria mellonella larvae of equal weight were injected with bacterial suspensions to observe the peptides’ efficacy. First, the wax worm larvae were weighed (Livefood UK Ltd., Rooks Bridge, UK). The appropriate weight for the assay was 250 ± 25 mg. Then, S. aureus NCTC 10788 was cultured in sterilized saline until the bacterial suspension density reached 10^8 CFU/mL. […] Then, 10 µL peptide solutions were injected into the larvae at 6, 12, and 24 mg/kg. The positive control was the dosage of 20 mg/kg Vancomycin. The negative control was the administration of saline. In total, nine wax worms were included in each group. After being injected, the number of larvae deaths was recorded every 12 h until it reached 120 h.

[3] = system: K. pneumoniae ATCC 43816; type: cell-based, Klebsiella pneumoniae
Method: (§2) The inhibition of representative microorganisms by peptides was evaluated by the modified broth dilution technique. The microorganisms included Candida albicans (C. albicans, NCTC 10231), Enterococcus faecalis (E. faecalis, NCTC 12697), Staphylococcus aureus (S. aureus, NCTC 10788), Klebsiella pneumoniae (K. pneumoniae, ATCC 43816), Methicillin-resistant Staphylococcus aureus (MRSA, ATCC 12493), Pseudomonas aeruginosa (P. aeruginosa, ATCC 27853), and Escherichia coli (E. coli, NCTC 10418).
(§3) Firstly, the selected microorganism was incubated in conical flasks with 100 mL Mueller Hinton broth (MHB) overnight. Then, the bacterial solution was sub-cultured in 20 mL MHB until it reached the logarithmic growth phase. Meanwhile, the peptide solution was prepared. The peptide was dissolved into 128 × 10^2 μM solution with phosphate-buffered saline (PBS) and then double-diluted into 64, 32, 16, 8, 4, 2, and 1 × 10^2 μM. Each sample solution and positive control ([…] Norfloxacin) was added to 96-well plates and divided into five replicates, 1 μL per well. The blank control was 100 µL MHB, and the growth control was 100 µL bacterial solutions. When the optical density (OD) value corresponding to the microbial concentration reached the value (Gram-positive bacteria: 0.23; Gram-negative bacteria: 0.4; fungi: 0.15) in their logarithmic growth phase, the microorganisms were diluted to the required concentration with MHB (Gram-negative and Gram-positive bacteria: 5 × 10^5 CFU/mL; fungi: 1 × 10^6 CFU/mL).
(§4) The diluted bacterial solution was then added to the 96-well plate at 99 µL per well. The plate was incubated at 37 °C and observed the next day. The MIC was the corresponding lowest peptide concentration without microbial growth. The absorbance of the 96-well plate at 550 nm was measured by Synergy HT Microplate Spectrophotometer (Biotech, Minneapolis, MN, USA), and the obtained values were quantitatively analyzed by Prism 7 software. Subsequently, the concentrations corresponding to the clear solution were removed from the 96-well plate in 10 µL and dropped onto the solidified MHA. The Petri dishes with MHA were cultured overnight, observed and the minimum peptide concentration without colonies was MBC.

[4] = system: E. coli NCTC 10418; type: cell-based, Escherichia coli
Method: as §2, §3, §4

[5] = system: S. aureus NCTC 10788; type: cell-based, Staphylococcus aureus
Method: As mentioned in the previous study, the salt and pH sensitivities of AMPs exposed to physiological concentrations of salts or non-neutral environments were tested. MHB containing different ion concentrations (150 mM NaCl, 1 mM MgCl2, and 4 μM FeCl3) and MHB with pH 6.0 and pH 8.0 were prepared. The selected microorganism Staphylococcus aureus (S. aureus, NCTC 10788) was incubated overnight in the prepared medium, sub-cultured to the logarithmic phase, and then diluted to 5 × 10^5 CFU/mL. The subsequent steps were carried out as the MIC/MBC assay.

[6] = system: P. aeruginosa ATCC 27853; type: cell-based, Pseudomonas aeruginosa
Method: as §2, §3, §4

[7] = system: MRSA NCTC 12493; type: cell-based, Methicillin-resistant Staphylococcus aureus
[8] = system: C. albicans NCTC 10231; type: cell-based, Candida albicans
Method: as §2, §3, §4

[9] = system: S. aureus NCTC 10788 biofilm; type: cell-based, Staphylococcus aureus; conditions: NCTC 10788, 24 h
Method: as §1

[10] = system: E. faecalis NCTC 12697; type: cell-based, Enterococcus faecalis
Method: as §2, §3, §4

[11] = system: S. aureus NCTC 10788; type: cell-based, Staphylococcus aureus; remark: listed apart in the source
Method: as §2, §3, §4

MIC [3]: > 128 µM | MIC [4]: > 128 µM | MIC [6]: > 128 µM | MIC [7]: 64 µM (≈ 105 µg/mL) | MIC [8]: > 128 µM | MIC [10]: 64 µM | MIC [11]: 64 µM
Structure (SMILES): CC[C@H](C)[C@H](NC(=O)[C@H](C)NC(=O)[C@H](CCC(=O)O)NC(=O)[C@H](CCC(N)=O)NC(=O)[C@@H](NC(=O)[C@H](CC(C)C)NC(=O)[C@H](C)NC(=O)[C@H](CC(C)C)NC(=O)[C@H](C)NC(=O)[C@H](CC(C)C)NC(=O)[C@@H](N)Cc1ccccc1)[C@@H](C)CC)C(=O)N[C@@H](C)C(=O)N[C@@H](CCCCN)C(=O)N[C@@H](CC(C)C)C(=O)N[C@@H](CCCCN)C(N)=O [QUB-1641] (H-FLALALIQEAIAKLK-NH2)
MBEC [1]: >128/>128 µM | MBIC [1]: >128/>128 µM | effect of injection on larvae [2]: causing the larvae to die directly after injection | MBC [3]: > 128 µM | MBC [4]: > 128 µM | MBC [5]: > 128 µM | MBC [6]: > 128 µM | MBC [7]: 128 µM (≈ 210 µg/mL) | MBC [8]: > 128 µM | MBEC [9]: 128/>128 µM | MBIC [9]: 128/>128 µM | MBC [10]: 128 µM | MBC [11]: 64 µM
